{"source": "patent US20250243344A1", "about": "“COMPOUND, RUBBER BLEND CONTAINING THE COMPOUND, VEHICLE TIRE COMPRISING THE RUBBER BLEND IN AT LEAST ONE COMPONENT, PROCESS FOR PREPARING THE COMPOUND, AND USE OF THE COMPOUND AS AN ANTI-AGING AGENT AND/OR ANTIOXIDANT” (Continental Reifen Deutschland GmbH, priority 2022, published 2025)", "experiment": "Measurement of oxidation induction time (OIT) by DSC", "details": "for Time at 180° C. (time to oxidation, oxidation induction time): isothermal 180° C., with liquid polyisoprene LIR-50, O2 atmosphere 50 ml/min, DSC peak", "description": "The compound of formula III) was investigated under laboratory conditions for its potential protective effect as an aging stabilizer by measurement of the oxidation induction time.\nTo this end the compounds of formula III) and 6PPD in each case together with a polymer (liquid synthetic polyisoprene (IR), LIR-50, Kuraray, weight average molecular weight distribution Mw=54 000 g/mol, glass transition temperature Tg=−63° C.) were heated at constant temperature (180° C.) until onset of oxidation (start temperature 35° C., heating to 170° C. at a heating rate of 20 K/min (kelvin per minute), heating to 180° C. at a heating rate of 1 K/min; purge gas: nitrogen (N2), volume flow 50 ml/min).\nThe specimen was kept under isothermal conditions at 180° C. under an N2 atmosphere for 5 minutes and the atmosphere was then switched to an O2 atmosphere (volume flow 50 ml/min).\nOxidation was determined via a peak using DSC (differential scanning calorimetry).\nThe time in minutes to oxidation was measured."}
{"compound": "CC(C)CC(C)Nc1ccc(Nc2ccccc2)cc1", "note": "(stereo not drawn) [Formula 6PPD, N-(1,3-dimethylbutyl)-N′-phenyl-p-phenylenediamine, reference compound]", "values": [{"measurement": "Time at 180° C. (time to oxidation, oxidation induction time)", "result": "116 ± 10", "unit": "min"}]}
{"compound": "CC(C)CC(C)Nc1ccc2[nH]c3c(c2c1)CCCC3", "note": "(stereo not drawn) [Formula III), 6-(1,3-dimethylbutylamino)-2,3,4,9-tetrahydro-1H-carbazole]", "values": [{"measurement": "antioxidant effect compared to 6PPD", "setting": "at 180° C., taking into account measurement accuracy of ± 10 minutes", "result": "comparable antioxidant effect to 6PPD"}, {"measurement": "Time at 180° C. (time to oxidation, oxidation induction time)", "result": "119 ± 10", "unit": "min"}]}
